Test results from patent US20240238424A1, “HETEROBIFUNCTIONAL COMPOUNDS AND METHODS OF TREATING DISEASE” (Halda Therapeutics OpCo, Inc., priority 2021, published 2024).

What was measured:
[1] = system: 22RV1 cells; assay: Cellular growth inhibition assay (CTG), 22RV1 cells; format: cell-based; details: Homo sapiens, CellTiter-Glo 2.0, day-5
Method: Cells were seeded in Poly-D-lysine-treated 384-well white plates, with 25 μL cell suspension at 250 cells/well for continuous treatments, and 1000 cells/well for washout treatments. Plates were spun at 300×g for 3 minutes, and cells were cultured at 37° C. with 5% CO2 in a humidified tissue culture incubator.
After 24 hours, the test compounds were diluted with cell culture medium in 96 deep well plates. DMSO was used as a negative control. A 25 μL aliquot of compound-containing medium was added in each well, at a final top concentration of 10 μM or 30 μM test compound, with 3-fold dilutions. For washout assays, after 4 hours, cell medium with compound was removed, and the cells were washed with 75p L fresh medium. Plates were then spun at 300×g for 3 minutes and replaced with 50 μL fresh medium in each well. Plates were then spun at 300×g for 3 minutes again and cultured at 37° C. with 5% CO2.
At day-0 and day-5 of compound treatments, cell viability was quantified with CellTiter-Glo 2.0 (Promega). After equilibrating cell plates at room temperature for 30 minutes, 25 μL CellTiter-Glo 2.0 reagent was dispensed into each well (on top of 50 μL of cell culture). Plates were mixed on a shaker for 2 minutes at 500 rpm, followed by a 10-minute incubation at room temperature. Luminescence readings were measured with an EnVision Plate Reader. Data was normalized to DMSO treated day-0 cell wells. A four-parameter non-linear regression curve fit was applied to dose-response data in Prism to determine the half maximal growth inhibitory concentration (GI50) of each compound.

[2] = molecular target: T1, GSPT1 (Homo sapiens, UniProt P15170+Q96SW2); assay: GSPT1 HiBit degradation assay; format: cell-based; details: Table 3; HEK293 LgBiT cells expressing GSPT1_HiBiT, luminescence after 6 hours
T1 construct: host or cells: HEK293 LgBiT cell line
T1 sequence (P15170 whole entry): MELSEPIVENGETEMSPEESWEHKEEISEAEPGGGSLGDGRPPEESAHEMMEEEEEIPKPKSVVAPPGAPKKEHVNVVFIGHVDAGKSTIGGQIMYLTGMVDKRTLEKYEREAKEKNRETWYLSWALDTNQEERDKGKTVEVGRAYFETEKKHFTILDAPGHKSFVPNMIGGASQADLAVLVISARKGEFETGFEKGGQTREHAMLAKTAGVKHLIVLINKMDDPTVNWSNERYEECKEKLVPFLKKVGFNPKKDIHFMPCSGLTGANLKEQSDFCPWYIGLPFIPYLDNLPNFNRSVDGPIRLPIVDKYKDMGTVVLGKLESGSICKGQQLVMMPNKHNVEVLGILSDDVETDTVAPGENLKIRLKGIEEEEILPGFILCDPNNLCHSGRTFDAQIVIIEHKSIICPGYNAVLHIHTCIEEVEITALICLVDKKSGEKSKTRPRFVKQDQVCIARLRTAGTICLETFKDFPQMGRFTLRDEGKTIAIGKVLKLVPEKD
T1 sequence (Q96SW2 whole entry): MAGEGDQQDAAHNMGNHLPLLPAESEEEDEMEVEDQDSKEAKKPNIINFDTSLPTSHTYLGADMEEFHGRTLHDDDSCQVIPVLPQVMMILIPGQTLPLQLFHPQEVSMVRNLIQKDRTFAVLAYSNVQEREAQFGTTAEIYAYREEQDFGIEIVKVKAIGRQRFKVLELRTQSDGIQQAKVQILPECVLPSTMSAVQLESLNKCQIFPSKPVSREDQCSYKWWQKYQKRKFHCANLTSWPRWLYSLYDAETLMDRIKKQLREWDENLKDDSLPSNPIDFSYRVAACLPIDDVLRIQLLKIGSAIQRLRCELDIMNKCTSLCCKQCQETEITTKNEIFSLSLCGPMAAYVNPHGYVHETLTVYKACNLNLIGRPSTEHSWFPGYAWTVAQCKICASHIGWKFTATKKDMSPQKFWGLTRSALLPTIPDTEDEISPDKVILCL
T1 sequence (Q16531 whole entry partner): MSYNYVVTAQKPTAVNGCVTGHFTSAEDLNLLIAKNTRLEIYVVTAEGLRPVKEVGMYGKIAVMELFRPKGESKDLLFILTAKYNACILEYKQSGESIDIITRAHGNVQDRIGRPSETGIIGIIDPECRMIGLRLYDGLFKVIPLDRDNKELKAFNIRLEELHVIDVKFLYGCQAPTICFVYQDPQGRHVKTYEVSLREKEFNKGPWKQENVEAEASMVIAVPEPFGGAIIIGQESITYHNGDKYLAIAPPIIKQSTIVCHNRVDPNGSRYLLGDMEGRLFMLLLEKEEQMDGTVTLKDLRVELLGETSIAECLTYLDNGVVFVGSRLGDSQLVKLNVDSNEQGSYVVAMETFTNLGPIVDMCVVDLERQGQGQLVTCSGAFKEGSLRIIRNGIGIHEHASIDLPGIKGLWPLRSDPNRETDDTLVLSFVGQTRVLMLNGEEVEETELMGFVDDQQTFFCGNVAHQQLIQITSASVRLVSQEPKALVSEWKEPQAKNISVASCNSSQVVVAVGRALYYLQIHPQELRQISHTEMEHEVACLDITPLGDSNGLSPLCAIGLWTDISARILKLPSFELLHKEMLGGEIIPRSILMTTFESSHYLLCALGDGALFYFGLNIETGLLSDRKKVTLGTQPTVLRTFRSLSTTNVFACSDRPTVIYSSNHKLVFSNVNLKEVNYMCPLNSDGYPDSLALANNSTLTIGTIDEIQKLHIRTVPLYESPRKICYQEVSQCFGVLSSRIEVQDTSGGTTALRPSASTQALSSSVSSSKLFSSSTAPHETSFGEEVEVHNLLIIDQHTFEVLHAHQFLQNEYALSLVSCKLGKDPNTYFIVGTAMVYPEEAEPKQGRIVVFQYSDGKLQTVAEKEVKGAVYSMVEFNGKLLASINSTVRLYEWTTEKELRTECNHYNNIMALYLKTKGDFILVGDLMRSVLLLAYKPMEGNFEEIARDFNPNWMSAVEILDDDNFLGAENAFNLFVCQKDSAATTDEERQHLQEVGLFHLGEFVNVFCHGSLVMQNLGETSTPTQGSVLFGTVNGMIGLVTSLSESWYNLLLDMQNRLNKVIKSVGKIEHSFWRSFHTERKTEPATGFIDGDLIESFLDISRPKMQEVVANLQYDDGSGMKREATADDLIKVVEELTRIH
Method in brief: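 Degradation readout is luminescence at 6 h, with DC50 taken as the concentration giving 50% GSPT1 loss. Compound titrations were added together with endurazine (0.5× final) to HEK293 LgBiT/GSPT1-HiBiT cells seeded the day before and kept at 37 °C.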

- GI50 [1]: < 100 nM
- DC50 [2]: < 250 nM
SMILES: CC1(C)[C@H](NC(=O)c2ccc(OCCOCCOCCOCCOCCOCCOCCc3cc(Cl)cc(NC(=O)NCc4ccc5c(c4)CN(C4CCC(=O)NC4=O)C5=O)c3)cc2)C(C)(C)[C@H]1Oc1ccc(C#N)c(Cl)c1 (some centres unmarked) [Compound I-22, N-((1r,3r)-3-(3-chloro-4-cyanophenoxy)-2,2,4,4-tetramethylcyclobutyl)-4-((20-(3-chloro-5-(3-((2-(2,6-dioxopiperidin-3-yl)-1-oxoisoindolin-5-yl)methyl)ureido)phenyl)-3,6,9,12,15,18-hexaoxaicosyl)oxy)benzamide]
